Results from patent US12077503B2, “Substituted cyclic amides and their use as herbicides” (FMC CORPORATION, priority 2015, dated 2024).
Read-outs that look alike come from different tables or passages of the source.

Legend:
Kochia (Kochia scoparia) = test: Test A preemergence; assay type: in vivo; details: Bassia scoparia, pre-emergence, 240 h, preemergence, read-out: Kochia plant response rating; for pest or weed control at 125 g/ha: 125 g ai/ha; for pest or weed control at 500 g/ha: 500 g ai/ha
Method in brief: (§1)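 Seeded soil received test chemicals as a preemergence directed spray, and seedlings at one to two leaves, 2–10 cm tall, received them postemergence, in a non-phytotoxic, surfactant-containing solvent mixture. Pots were held in a greenhouse for approximately 10 d, then rated for injury from 0, no effect, to 100, complete control.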

[1] = tested on: barnyardgrass (Echinochloa crus-galli); test: Test A preemergence; assay type: in vivo; details: Echinochloa crus-galli, pre-emergence, 240 h; for pest or weed control at 125 g/ha: 125 g ai/ha; for pest or weed control at 500 g/ha: 500 g ai/ha
Method in brief: as §1

[2] = tested on: pigweed (Amaranthus retroflexus); test: Test A preemergence; assay type: in vivo; details: Amaranthus retroflexus, pre-emergence, 240 h, preemergence, read-out: Pigweed plant response rating; for pest or weed control at 125 g/ha: 125 g ai/ha; for pest or weed control at 500 g/ha: 500 g ai/ha
[3] = tested on: ragweed (common ragweed, Ambrosia elatior); test: Test A preemergence; assay type: in vivo; details: Ambrosia artemisiifolia, pre-emergence, 240 h, preemergence, read-out: Ragweed plant response rating; for pest or weed control at 500 g/ha: 500 g ai/ha; for pest or weed control at 125 g/ha: 125 g ai/ha, approx. 10 d
Method in brief: as §1

[4] = tested on: ryegrass, Italian (Italian ryegrass, Lolium multiflorum); test: Test A preemergence; assay type: in vivo; details: Lolium multiflorum, pre-emergence, 240 h, preemergence, read-out: Ryegrass, Italian plant response rating; for pest or weed control at 500 g/ha: 500 g ai/ha; for pest or weed control at 125 g/ha: 125 g ai/ha, approx. 10 d
Method in brief: as §1

[5] = 0 to 100 scale where 0 is no effect and 100 is complete control
[6] = visual injury rating about 10 d after treatment, 0 to 100 scale (0 no effect, 100 complete control)
[7] = preemergence, 0 to 100 scale where 0 is no effect and 100 is complete control, read-out: Barnyardgrass plant response rating
[8] = preemergence, visual injury rating about 10 d after treatment, 0 to 100 scale (0 no effect, 100 complete control), read-out: Barnyardgrass plant response rating
[9] = 0 to 100 scale where 0 is no effect and 100 is complete control, approx. 10 d
[10] = preemergence, 0 to 100 scale where 0 is no effect and 100 is complete control, approx. 10 d, read-out: Barnyardgrass plant response rating

Row | Compound | pest or weed control at 125 g/ha (Kochia (Kochia scoparia); [5]) | pest or weed control at 500 g/ha (Kochia (Kochia scoparia); [6]) | pest or weed control at 125 g/ha [1, 7] | pest or weed control at 500 g/ha [1, 8] | pest or weed control at 125 g/ha [2, 5] | pest or weed control at 500 g/ha [2, 6] | pest or weed control at 500 g/ha [3, 6] | pest or weed control at 500 g/ha [4, 6] | melting point | pest or weed control at 125 g/ha (Kochia (Kochia scoparia); [9]) | pest or weed control at 125 g/ha ([1]; Preemergence, visual injury rating after approximately 10 d, read-out: Barnyardgrass plant response rating (0 to 100 scale, 0 is no effect, 100 is complete control)) | pest or weed control at 125 g/ha [2, 9] | pest or weed control at 125 g/ha [3, 5] | pest or weed control at 125 g/ha [4, 5] | pest or weed control at 500 g/ha (Kochia (Kochia scoparia); [5]) | pest or weed control at 125 g/ha [1, 10] | pest or weed control at 500 g/ha [1, 7] | pest or weed control at 500 g/ha [2, 5] | pest or weed control at 500 g/ha [3, 5] | pest or weed control at 500 g/ha [4, 5]
1 | CN1C[C@H](c2ccc(C(F)(F)F)cc2)[C@@H](C(=O)Nc2ccc(F)cc2C(F)(F)F)C1=O [Compound 942] | 70% | 90% | 70% | 90% | 80% | 90% | 50% | 20% | 113 to 116 °C |  |  |  |  |  |  |  |  |  |  | 
2 | CCc1cccc([C@H]2CCNC(=O)[C@@H]2C(=O)Nc2cccc(F)c2F)c1 [Compound 1058] |  | 30% |  | 100% |  | 0% | 0% | 40% | 128 to 132 °C | 0% | 90% | 0% | 0% | 0% |  |  |  |  |  | 
3 | CN1CC(c2cccc(/C=C/Cl)c2)C(C(=O)Nc2ccccc2F)C1=O (stereo not drawn) [Compound 1129] |  |  |  |  |  |  |  |  | 97 to 101 °C | 0% |  | 0% | 0% | 20% | 50% | 80% | 90% | 0% | 0% | 50%
4 | Cc1cccc(NC(=O)[C@H]2C(=O)N(C)C[C@@H]2c2ccc(C(F)(F)F)cc2)c1F [Compound 939] | 30% | 60% | 90% | 90% | 0% | 0% | 50% | 20% | 178 to 181 °C |  |  |  |  |  |  |  |  |  |  | 
5 | Cc1cccc(NC(=O)[C@H]2C(=O)N(C)C[C@@H]2c2ccc(C(F)(F)F)cc2)c1C [Compound 941] | 0% | 0% | 80% | 90% | 0% | 0% | 30% | 0% | 166 to 169 °C |  |  |  |  |  |  |  |  |  |  | 
6 | CN1C[C@H](c2ccc(C(F)(F)F)cc2)[C@@H](C(=O)Nc2ccc(F)cc2Br)C1=O [Compound 934] | 50% | 80% | 70% | 90% | 0% | 80% | 30% | 60% | 123 to 126 °C |  |  |  |  |  |  |  |  |  |  | 
7 | CCc1cc([C@H]2CN(C)C(=O)[C@@H]2C(=O)Nc2ccccc2F)cs1 [Compound 1156] |  |  |  |  |  |  |  |  | 117 to 121 °C | 70% |  | 0% | 100% | 20% | 80% | 90% | 90% | 20% | 100% | 30%
8 | O=C1NC[C@H](c2ccc(F)c(OC(F)(F)C(F)F)c2)[C@H]1C(=O)Nc1ccc(F)cc1F (racemic) [Compound 1154] |  |  |  |  |  |  |  |  | 102 to 106 °C | 70% |  | 60% | 20% | 30% | 90% | 90% | 90% | 80% | 90% | 50%
9 | Cc1cc(F)ccc1NC(=O)[C@H]1C(=O)N(C)C[C@@H]1c1ccc(C(F)(F)F)cc1 [Compound 936] | 60% | 90% | 70% | 90% | 20% | 80% | 50% | 70% | 119 to 122 °C |  |  |  |  |  |  |  |  |  |  | 
10 | O=C1NC[C@H](c2ccc(F)c(OC(F)(F)C(F)F)c2)[C@H]1C(=O)Nc1ccccc1F [Compound 1133] |  |  |  |  |  |  |  |  | 119 to 123 °C | 60% |  | 30% | 40% | 20% | 100% | 90% | 90% | 70% | 60% | 30%
11 | CN1CC(c2cccc(O)c2)C(C(=O)Nc2cccc(F)c2F)C1=O (stereo not drawn) [Compound 1130] |  |  |  |  |  |  |  |  | 216 to 220 °C | 0% |  | 0% | 0% | 0% | 0% | 0% | 0% | 0% | 0% | 0%
